Measured values from the CheMixHub viscosity set.
Where “and” joins values, the source holds several entries; their conditions need not be identical. Identical values can stand only once.

Test: xn = mol fraction of the nth substance listed

Cc1ccccn1 + O
viscosity [mPa·s]
Conditions | 298.15 K | 303.15 K | 313.15 K | 323.15 K
101 kPa, x1 = 0.02168 | 1.207 | – | – | –
101 kPa, x1 = 0.05477 | 1.711 | – | – | –
101 kPa, x1 = 0.1594 | 2.779 | – | – | –
101 kPa, x1 = 0.2977 | 3.166 | – | – | –
101 kPa, x1 = 0.6247 | 1.736 | – | – | –
101.3 kPa, x1 = 0.1 | – | 1.916 | 1.467 | 1.168
101.3 kPa, x1 = 0.2 | – | 2.506 | 1.839 | 1.42
101.3 kPa, x1 = 0.3 | – | 2.594 | 1.909 | 1.465
101.3 kPa, x1 = 0.3999 | – | 2.364 | 1.757 | 1.362
101.3 kPa, x1 = 0.4997 | – | 1.982 | 1.515 | 1.201
101.3 kPa, x1 = 0.5999 | – | 1.554 | 1.237 | 1.008
101.3 kPa, x1 = 0.7 | – | 1.234 | 1.016 | 0.8611
101.3 kPa, x1 = 0.8146 | – | 0.9988 | 0.8497 | 0.7336
101.3 kPa, x1 = 0.8999 | – | 0.8499 | 0.7339 | 0.6501

[Cl-].[Na+] + O
Conditions | viscosity
293.15 K, 101.3 kPa, x1 = 0.02 | 1.079 mPa·s
293.15 K, 101.3 kPa, x1 = 0.03479 | 1.188 mPa·s
295.95 K, 100 kPa, x1 = 0.045 | 1.205 mPa·s
296.05 K, 100 kPa, x1 = 0.006 | 0.95 mPa·s
296.17 K, 100 kPa, x1 = 0.06928 | 1.448 mPa·s
296.24 K, 100 kPa, x1 = 0.06928 | 1.444 mPa·s
296.26 K, 100 kPa, x1 = 0.06928 | 1.444 mPa·s
296.5 K, 100 kPa, x1 = 0.045 | 1.192 mPa·s
296.51 K, 100 kPa, x1 = 0.045 | 1.191 mPa·s
296.65 K, 100 kPa, x1 = 0.008493 | 0.958 mPa·s and 0.96 mPa·s
296.77 K, 100 kPa, x1 = 0.06928 | 1.427 mPa·s
297.15 K, 100 kPa, x1 = 0.01884 | 1.001 mPa·s and 1.002 mPa·s
298.15 K, 100 kPa, x1 = 0.04394 | 1.132 mPa·s
298.15 K, 100 kPa, x1 = 0.05559 | 1.241 mPa·s
298.15 K, 101.3 kPa, x1 = 0.001798 | 0.8994 mPa·s
298.15 K, 101.3 kPa, x1 = 0.005732 | 0.9164 mPa·s
298.15 K, 101.3 kPa, x1 = 0.009 | 0.9256 mPa·s
298.15 K, 101.3 kPa, x1 = 0.01421 | 0.9571 mPa·s
298.15 K, 101.3 kPa, x1 = 0.02 | 0.9683 mPa·s
298.15 K, 101.3 kPa, x1 = 0.02116 | 0.9928 mPa·s
298.15 K, 101.3 kPa, x1 = 0.03479 | 1.071 mPa·s
298.15 K, 101.32 kPa, x1 = 0.09892 | 1.633 mPa·s
298.65 K, 100 kPa, x1 = 0.07389 | 1.412 mPa·s and 1.413 mPa·s and 1.41 mPa·s
300.65 K, 100 kPa, x1 = 0.08874 | 1.525 mPa·s
301.01 K, 100 kPa, x1 = 0.09185 | 1.546 mPa·s
301.02 K, 100 kPa, x1 = 0.09185 | 1.545 mPa·s
301.09 K, 100 kPa, x1 = 0.06928 | 1.299 mPa·s
301.12 K, 100 kPa, x1 = 0.06928 | 1.298 mPa·s
301.15 K, 100 kPa, x1 = 0.008493 | 0.868 mPa·s
301.25 K, 100 kPa, x1 = 0.01884 | 0.9164 mPa·s and 0.9176 mPa·s
301.59 K, 100 kPa, x1 = 0.045 | 1.071 mPa·s
301.67 K, 100 kPa, x1 = 0.045 | 1.067 mPa·s
301.68 K, 100 kPa, x1 = 0.045 | 1.069 mPa·s
301.71 K, 100 kPa, x1 = 0.09185 | 1.521 mPa·s
301.87 K, 100 kPa, x1 = 0.06928 | 1.277 mPa·s
303.15 K, 100 kPa, x1 = 0.02582 | 0.92 mPa·s
303.15 K, 101 kPa, x1 = 0.008924 | 0.8232 mPa·s
303.15 K, 101 kPa, x1 = 0.01768 | 0.8649 mPa·s
303.15 K, 101 kPa, x1 = 0.02626 | 0.911 mPa·s
303.15 K, 101.3 kPa, x1 = 0.001 | 0.807 mPa·s
303.15 K, 101.3 kPa, x1 = 0.009 | 0.8358 mPa·s
303.15 K, 101.3 kPa, x1 = 0.02 | 0.8758 mPa·s
303.15 K, 101.3 kPa, x1 = 0.03479 | 0.9703 mPa·s
303.65 K, 100 kPa, x1 = 0.04394 | 1.016 mPa·s and 1.019 mPa·s
304.15 K, 100 kPa, x1 = 0.05559 | 1.096 mPa·s and 1.095 mPa·s
308.15 K, 100 kPa, x1 = 0.07389 | 1.166 mPa·s
308.15 K, 101.3 kPa, x1 = 0.001798 | 0.7274 mPa·s
308.15 K, 101.3 kPa, x1 = 0.00359 | 0.7334 mPa·s
308.15 K, 101.3 kPa, x1 = 0.005732 | 0.7425 mPa·s
308.15 K, 101.3 kPa, x1 = 0.008927 | 0.7567 mPa·s
308.15 K, 101.3 kPa, x1 = 0.01421 | 0.7787 mPa·s
308.15 K, 101.3 kPa, x1 = 0.02116 | 0.81 mPa·s
308.65 K, 100 kPa, x1 = 0.07389 | 1.151 mPa·s and 1.152 mPa·s
308.66 K, 100 kPa, x1 = 0.06928 | 1.115 mPa·s and 1.116 mPa·s
308.68 K, 100 kPa, x1 = 0.06928 | 1.116 mPa·s
308.71 K, 100 kPa, x1 = 0.06928 | 1.113 mPa·s
308.73 K, 100 kPa, x1 = 0.06928 | 1.113 mPa·s
309.04 K, 100 kPa, x1 = 0.045 | 0.9262 mPa·s
309.11 K, 100 kPa, x1 = 0.045 | 0.926 mPa·s
309.26 K, 100 kPa, x1 = 0.045 | 0.9211 mPa·s
313.15 K, 100 kPa, x1 = 0.05559 | 0.926 mPa·s and 0.924 mPa·s
313.15 K, 101 kPa, x1 = 0.008924 | 0.6852 mPa·s
313.15 K, 101 kPa, x1 = 0.01768 | 0.7209 mPa·s
313.15 K, 101 kPa, x1 = 0.02626 | 0.759 mPa·s
313.15 K, 101.3 kPa, x1 = 0.001 | 0.668 mPa·s
313.15 K, 101.3 kPa, x1 = 0.009 | 0.6992 mPa·s
313.15 K, 101.3 kPa, x1 = 0.02 | 0.7327 mPa·s
313.15 K, 101.3 kPa, x1 = 0.03479 | 0.8126 mPa·s
313.15 K, 101.32 kPa, x1 = 0.1014 | 1.281 mPa·s
313.65 K, 100 kPa, x1 = 0.008493 | 0.679 mPa·s
313.65 K, 100 kPa, x1 = 0.02582 | 0.751 mPa·s and 0.75 mPa·s and 0.748 mPa·s
314.15 K, 100 kPa, x1 = 0.04394 | 0.834 mPa·s
317.65 K, 100 kPa, x1 = 0.08874 | 1.092 mPa·s and 1.096 mPa·s
318.15 K, 100 kPa, x1 = 0.07389 | 0.974 mPa·s and 0.97 mPa·s and 0.973 mPa·s
318.15 K, 101.3 kPa, x1 = 0.001798 | 0.6031 mPa·s
318.15 K, 101.3 kPa, x1 = 0.00359 | 0.6082 mPa·s
318.15 K, 101.3 kPa, x1 = 0.005732 | 0.6163 mPa·s
318.15 K, 101.3 kPa, x1 = 0.008927 | 0.6293 mPa·s
318.15 K, 101.3 kPa, x1 = 0.01421 | 0.6488 mPa·s
323.15 K, 101 kPa, x1 = 0.008924 | 0.5852 mPa·s
323.15 K, 101 kPa, x1 = 0.01768 | 0.617 mPa·s
323.15 K, 101 kPa, x1 = 0.02626 | 0.6491 mPa·s
323.15 K, 101.3 kPa, x1 = 0.009 | 0.6002 mPa·s
323.15 K, 101.3 kPa, x1 = 0.02 | 0.6302 mPa·s
323.15 K, 101.3 kPa, x1 = 0.03479 | 0.6611 mPa·s

ClC=C(Cl)Cl + O=C1CCCCC1
viscosity [mPa·s], 101.33 kPa
Conditions | x1 = 0.1122 | x1 = 0.2059 | x1 = 0.3057 | x1 = 0.4263 | x1 = 0.4957 | x1 = 0.4987 | x1 = 0.6177 | x1 = 0.7064 | x1 = 0.7889 | x1 = 0.9152
298.15 K | 1.589 | 1.365 | 1.215 | 1.069 | – | 0.988 | 0.883 | 0.803 | 0.739 | 0.666
308.15 K | 1.339 | 1.174 | 1.062 | 0.944 | 0.878 | – | 0.789 | 0.723 | 0.68 | 0.618
318.15 K | 1.158 | 1.034 | 0.933 | 0.835 | 0.791 | – | 0.719 | 0.672 | 0.633 | 0.582

CCCCCCCC[P+](CC)(CC)CC.N#Cc1ccc[n-]1 + OCC(O)CO
viscosity [mPa·s], 100 kPa
Conditions | 293.15 K | 298.15 K | 303.15 K | 313.15 K
x1 = 0.031 | 1533 | 966 | 621 | 248
x1 = 0.071 | 1550 | 996 | 617 | 248
x1 = 0.109 | 1457 | 916 | 581 | 228
x1 = 0.16 | 1330 | 825 | 540 | 240
x1 = 0.222 | 1133 | 699 | 428 | 198
x1 = 0.297 | 903 | 584 | 405 | 187
x1 = 0.393 | 672 | 437 | 289 | 150
x1 = 0.457 | 608 | 408 | 274 | 138
x1 = 0.532 | 545 | 368 | 251 | 134
x1 = 0.615 | 519 | 357 | 245 | 129
x1 = 0.742 | 434 | 291 | 197 | 105
x1 = 0.833 | 372 | 252 | 167 | 89

CCCCCCCC[P+](CC)(CC)CC.N#Cc1ccc[n-]1 + OCCN(CCO)CCO
viscosity [mPa·s], 100 kPa
Conditions | 293.15 K | 298.15 K | 303.15 K | 313.15 K
x1 = 0.014 | 950 | 622 | 405 | 185
x1 = 0.025 | 986 | 640 | 415 | 190
x1 = 0.039 | 1004 | 657 | 426 | 193
x1 = 0.049 | 1011 | 660 | 426 | 193
x1 = 0.104 | 939 | 596 | 380 | 175
x1 = 0.167 | 824 | 539 | 351 | 163
x1 = 0.223 | 812 | 533 | 352 | 166
x1 = 0.315 | 722 | 474 | 314 | 152
x1 = 0.508 | 619 | 422 | 284 | 140
x1 = 0.647 | 600 | 406 | 273 | 136
x1 = 0.809 | 438 | 301 | 202 | 101
